molecular target: T1, SYK (Homo sapiens, UniProt P43405); test: SYK flash plate assay (enzyme assay); type: biochemical
T1 construct: 2.5 nM SYK, 400 nM Biotin-Aha-Aha-KEDPDYEWPSAKK
Protocol: The kinase assay is performed either as 384-well Flashplate assay (for e.g. Topcount measurement) or as 384-well Image-Flashplate assay (for LEADseeker measurement).
2.5 nM SYK, 400 nM Biotin-Aha-Aha-KEDPDYEWPSAKK
and 10 μM ATP (spiked with 0.3 μCi 33P-ATP/well) are incubated in a total volume of 50 μl (60 mM Hepes, 10 mM MgCl2, 1.2 mM Dithiothreitol, 0.02% Brij35, 0.1% BSA, pH 7.5) with or without test compound for 1 hours at 30° C. The reaction is stopped with 25 μl 200 mM EDTA. After 30 Min at 30° C. the liquid is removed and each well washed thrice with 100 μl 0.9% sodium chloride solution. Non-specific reaction is determined in presence of […] Staurosporine. Radioactivity is measured with Topcount (when using Flashplates) or with LEADseeker (when using Image-Flashplates) respectively. Results (e.g. IC50-values) are calculated with program tools provided by the IT-department (e.g. Symyx Assay Explorer, Genedata Screener). In Vivo Assays CIA

First: CC1(C)C(=O)Nc2cc(Nc3nc4c(N5CCCC5c5ccccc5)nccn4n3)ccc21 (stereo not drawn) [C100, 3,3-dimethyl-6-[8-(2-phenyl-pyrrolidin-1-yl)-[1,2,4]triazolo[1,5-a]pyrazin-2-ylamino]-1,3-dihydro-indol-2-one]
Second: CC1(C)C(=O)Nc2cc(Nc3nc4c(N5C[C@@H](O)C[C@@H]5c5ccccc5)nccn4n3)ccc21 [E5, 6-[8-((2R,4S)-4-hydroxy-2-phenyl-pyrrolidin-1-yl)-[1,2,4]triazolo[1,5-a]pyrazin-2-ylamino]-3,3-dimethyl-1,3-dihydro-indol-2-one]
The IC50 of the first is higher: 300 to 3000 nM for the first, 100 to 300 nM for the second.

First: CC1(C)C(=O)Nc2cc(Nc3nc4c(-c5cccc(S(N)(=O)=O)c5)nccn4n3)ccc21 [C102, 3-[2-(3,3-dimethyl-2-oxo-2,3-dihydro-1H-indol-6-ylamino)-[1,2,4]triazolo[1,5-a]pyrazin-8-yl]-benzenesulfonamide]
Second: CC1(C)C(=O)Nc2cc(Nc3nc4c(N5C[C@H](O)C[C@@H]5c5ccccc5)nccn4n3)ccc21 [E6, 6-[8-(4(2R,4R)-4-hydroxy-2-phenyl-pyrrolidin-1-yl)-[1,2,4]triazolo[1,5-a]pyrazin-2-ylamino]-3,3-dimethyl-1,3-dihydro-indol-2-one]
The IC50 of the first is lower: < 100 nM for the first, 100 to 300 nM for the second.

First: CCOC(=O)c1cnn2c1CN(c1nccn3nc(Nc4ccc5c(c4)NC(=O)C5(C)C)nc13)CC2 [C106, 5-[2-(3,3-dimethyl-2-oxo-2,3-dihydro-1H-indol-6-ylamino)-[1,2,4]triazolo[1,5-a]pyrazin-8-yl]-4,5,6,7-tetrahydro-pyrazolo[1,5-a]pyrazine-3-carboxylic acid ethyl ester]
Second: CC1(C)C(=O)Nc2cc(Nc3nc4c(N5CCC(C(N)=O)C5)nccn4n3)ccc21 (stereo not drawn) [E3, 1-[2-(3,3-dimethyl-2-oxo-2,3-dihydro-1H-indol-6-ylamino)-[1,2,4]triazolo[1,5-a]pyrazin-8-yl]-pyrrolidine-3-carboxylic acid amide]
The IC50 of the first is higher: 300 to 3000 nM for the first, < 100 nM for the second.

`CN1CCCC(Nc2nccn3nc(Nc4ccc5c(c4)NC(=O)C5(C)C)nc23)C1` (stereo not drawn) [C107, 3,3-dimethyl-6-[8-(1-methyl-piperidin-3-ylamino)[1,2,4]triazolo[1,5-a]yrazin-2-ylamino]-1,3-dihydro-indol-2-one] and `CC1(C)C(=O)Nc2cc(Nc3nc4c(N5CCC[C@@H]5C(N)=O)nccn4n3)ccc21` [E22, (R)-1-[2-(3,3-dimethyl-2-oxo-2,3-dihydro-1H-indol-6-ylamino)-[1,2,4]triazolo[1,5-a]pyrazin-8-yl]-pyrrolidine-2-carboxylic acid amide] fall in the same range of IC50: 300 to 3000 nM for the first, 300 to 3000 nM for the second.

First: CC1(C)C(=O)Nc2cc(Nc3nc4c(N5CC6(C5)NC(=O)NC6=O)nccn4n3)ccc21 [C109, 2-[2-(3,3-dimethyl-2-oxo-2,3-dihydro-1H-indol-6-ylamino)-[1,2,4]triazolo[1,5-a]pyrazin-8-yl]-2,5,7-triaza-spiro[3.4]octane-6,8-dione]
Second: CC1(C)C(=O)Nc2cc(Nc3nc4c(N5CCCC6(C5)NC(=O)NC6=O)nccn4n3)ccc21 (stereo not drawn) [C110, 7-[2-(3,3-dimethyl-2-oxo-2,3-dihydro-1H-indol-6-ylamino)-[1,2,4]triazolo[1,5-a]pyrazin-8-yl]-1,3,7-triaza-spiro[4.5]decane-2,4-dione]
The IC50 of the first is lower: 100 to 300 nM for the first, 300 to 3000 nM for the second. The first is the more potent here.

First: COc1cc(Nc2nc3c(N4CCN(C(=O)OC(C)(C)C)CC4)nccn3n2)cc(OC)c1 [D1, 4-[2-(3,5-dimethoxy-phenylamino)-[1,2,4]triazolo[1,5-a]pyrazin-8-yl]-piperazine-1-carboxylic acid tert-butyl ester]
Second: COc1cc(Nc2nc3c(N4CCCC(C(N)=O)C4)nccn3n2)cc(OC)c1 (stereo not drawn) [D2, 1-[2-(3,5-dimethoxy-phenylamino)-[1,2,4]triazolo[1,5-a]pyrazin-8-yl]-piperidine-3-carboxylic acid amide]
The IC50 of the first is higher: 3000 to 50000 nM for the first, 300 to 3000 nM for the second. The second is the more potent here.

`CC1(C)C(=O)Nc2cc(Nc3nc4c(N5CCc6nc(O)nc(O)c6C5)nccn4n3)ccc21` [E1, 6-[8-(2,4-dihydroxy-7,8-dihydro-5H-pyrido[4,3-d]pyrimidin-6-yl)-[1,2,4]triazolo[1,5-a]pyrazin-2-ylamino]-3,3-dimethyl-1,3-dihydro-indol-2-one] and `COC(=O)C1CCN(c2nccn3nc(Nc4ccc5c(c4)NC(=O)C5(C)C)nc23)C1` (stereo not drawn) [E2, 1-[2-(3,3-dimethyl-2-oxo-2,3-dihydro-1H-indol-6-ylamino)-[1,2,4]triazolo[1,5-a]pyrazin-8-yl]-pyrrolidine-3-carboxylic acid methyl ester] cannot be ordered by IC50: < 100 nM for the first, < 100 nM for the second.

First: CC1(C)C(=O)Nc2cc(Nc3nc4c(N5CCC(C(=O)NC6CC6)C5)nccn4n3)ccc21 (stereo not drawn) [E4, 1-[2-(3,3-dimethyl-2-oxo-2,3-dihydro-1H-indol-6-ylamino)-[1,2,4]triazolo[1,5-a]pyrazin-8-yl]-pyrrolidine-3-carboxylic acid cyclopropylamide]
Second: CC(=O)N(C)C1CCN(c2nccn3nc(Nc4ccc5c(c4)NC(=O)C5(C)C)nc23)C1 (stereo not drawn) [E11, N-{1-[2-(3,3-dimethyl-2-oxo-2,3-dihydro-1H-indol-6-ylamino)-[1,2,4]triazolo[1,5-a]pyrazin-8-yl]-pyrrolidin-3-yl}-N-methyl-acetamide]
The IC50 of the first is lower: 100 to 300 nM for the first, 300 to 3000 nM for the second.

`CC1(C)CC(=O)Nc2cc(Nc3nc4c(N5CCC6(CC(=O)NC6=O)C5)nccn4n3)ccc21` (stereo not drawn) [E7, 7-[2-(4,4-dimethyl-2-oxo-1,2,3,4-tetrahydro-quinolin-7-ylamino)-[1,2,4]triazolo[1,5-a]pyrazin-8-yl]-2,7-diaza-spiro[4.4]nonane-1,3-dione] and `CC1(C)C(=O)Nc2cc(Nc3nc4c(N5CC[C@@]6(CC(=O)NC6=O)C5)nccn4n3)ccc21` [E16, (R)-7-[2-(3,3-dimethyl-2-oxo-2,3-dihydro-1H-indol-6-ylamino)-[1,2,4]triazolo[1,5-a]pyrazin-8-yl]-2,7-diaza-spiro[4.4]nonane-1,3-dione] cannot be ordered by IC50: < 100 nM for the first, < 100 nM for the second.

`Cn1cc(-c2nccn3nc(Nc4ccc5c(c4)NC(=O)C54CCC4)nc23)cn1` [E8, 6′-[[8-(1-methylpyrazol-4-yl)-[1,2,4]triazolo[1,5-a]pyrazin-2-yl]amino]spiro[cyclobutane-1,3′-indoline]-2′-one] and `Cn1cc(-c2nccn3nc(Nc4ccc5c(c4)NCCC5(C)C)nc23)cn1` [E21, (4,4-dimethyl-1,2,3,4-tetrahydro-quinolin-7-yl)-[8-(1-methyl-1H-pyrazol-4-yl)-[1,2,4]triazolo[1,5-a]pyrazin-2-yl]-amine] cannot be ordered by IC50: < 100 nM for the first, < 100 nM for the second.

`CC1(C)CCNc2cc(Nc3nc4c(N5CCC6(CCNC6)C5)nccn4n3)ccc21` (stereo not drawn) [E9, [8-(2,7-diaza-spiro[4.4]non-2-yl)-[1,2,4]triazolo[1,5-a]pyrazin-2-yl]-(4,4-dimethyl-1,2,3,4-tetrahydro-quinolin-7-yl)-amine] and `CC1(C)C(=O)Nc2cc(Nc3nc4c(N5CCC6(CNC(=O)C6)C5)nccn4n3)ccc21` (stereo not drawn) [E20, 3,3-dimethyl-6-[8-(8-oxo-2,7-diaza-spiro[4.4]non-2-yl)-[1,2,4]triazolo[1,5-a]pyrazin-2-ylamino]-1,3-dihydro-indol-2-one] cannot be ordered by IC50: < 100 nM for the first, < 100 nM for the second.

`CC1(C)C(=O)Nc2cc(Nc3nc4c(N5CCC6(C5)OCCO6)nccn4n3)ccc21` [E10, 6-[8-(1,4-dioxa-7-aza-spiro[4.4]non-7-yl)-[1,2,4]triazolo[1,5-a]pyrazin-2-ylamino]-3,3-dimethyl-1,3-dihydro-indol-2-one] and `CC1(C)C(=O)Nc2cc(Nc3nc4c(N5CCC6(CCNC6=O)C5)nccn4n3)ccc21` (stereo not drawn) [E19, 3,3-dimethyl-6-[8-(6-oxo-2,7-diaza-spiro[4.4]non-2-yl)-[1,2,4]triazolo[1,5-a]pyrazin-2-ylamino]-1,3-dihydro-indol-2-one] fall in the same range of IC50: 100 to 300 nM for the first, 100 to 300 nM for the second.

`CC1(C)C(=O)Nc2cc(Nc3nc4c(N5CCC6(CCNC6=O)CC5)nccn4n3)ccc21` [E13, 8-[2-(3,3-dimethyl-2-oxo-2,3-dihydro-1H-indol-6-ylamino)-[1,2,4]triazolo[1,5-a]pyrazin-8-yl]-2,8-diaza-spiro[4.5]decan-1-one] and `CC1(C)C(=O)Nc2cc(Nc3nc4c(N5CC[C@]6(CC(=O)NC6=O)C5)nccn4n3)ccc21` [E18, (S)-7-[2-(3,3-dimethyl-2-oxo-2,3-dihydro-1H-indol-6-ylamino)-[1,2,4]triazolo[1,5-a]pyrazin-8-yl]-2,7-diaza-spiro[4.4]nonane-1,3-dione] cannot be ordered by IC50: < 100 nM for the first, < 100 nM for the second.

`CC(=O)N1CCC(N(C)c2nccn3nc(Nc4ccc5c(c4)NC(=O)C5(C)C)nc23)CC1` [E14, 6-{8-[(1-acetyl-piperidin-4-yl)-methyl-amino]-[1,2,4]triazolo[1,5-a]pyrazin-2-ylamino}-3,3-dimethyl-1,3-dihydro-indol-2-one] and `CN(c1nccn2nc(Nc3ccc4c(c3)NC(=O)C4(C)C)nc12)C1CCNCC1` [E17, 3,3-dimethyl-6-[8-(methyl-piperidin-4-yl-amino)-[1,2,4]triazolo[1,5-a]pyrazin-2-ylamino]-1,3-dihydro-indol-2-one] fall in the same range of IC50: 100 to 300 nM for the first, 100 to 300 nM for the second.

Compared with `Cn1cc(-c2nccn3nc(Nc4ccc5c(c4)NS(=O)(=O)C5)nc23)cn1` [E23, (2,2-dioxo-2,3-dihydro-1H-2I6-benzo[c]isothiazol-6-yl)-[8-(1-methyl-1H-pyrazol-4-yl)-[1,2,4]triazolo[1,5-a]pyrazin-2-yl]-amine], `CC1(C)C(=O)Nc2cc(Nc3nc4c(N5C[C@H](O)C[C@H]5c5ccccc5)nccn4n3)ccc21` [E24, 6-[8-((2S,4R)-4-hydroxy-2-phenyl-pyrrolidin-1-yl)-[1,2,4]triazolo[1,5-a]pyrazin-2-ylamino]-3,3-dimethyl-1,3-dihydro-indol-2-one] is higher in IC50: 100 to 300 nM for the first, 3000 to 50000 nM for the second. The first is the more potent here.

Reference: patent US9120804B2, “8-substituted 2-amino-[1,2,4] triazolo [1, 5-A] pyrazines as Syk tryrosine kinase inhibitors and GCN2 serin kinase inhibitors” (Merck Patent GmbH, priority 2012, dated 2015)
